Data reported in patent publication US20210317145A1, “Boronic Acid Derivatives” (Merck Patent GmbH, priority 2018, published 2021).

Assays:
[1] = molecular target: LMP7 (purified human immuno proteasome) (Homo sapiens, UniProt P20618+P28062); assay: Determination of LMP7 activity (fluorescence intensity assay, Suc-LLVY-AMC); format: biochemical; settings: for Selectivity LMP7 vs Beta5: LMP7 versus Beta5, incubation for 20 minutes; for IC50: purified human immuno proteasome 0.25 nM, incubation for 20 minutes at 25° C., Suc-LLVY-AMC 40 μM
Method: Determination of LMP7 Activity:
Measurement of LMP7 inhibition is performed in 384 well format based on fluorescence intensity assay.
(§1) Purified human immuno proteasome (0.25 nM) and serial diluted compounds in DMSO (range of concentrations from 30 μM to […]) or controls are incubated for 20 minutes or 120 minutes (long incubation) at 25° C. in assay buffer containing 50 mM Tris pH 7.4, 0.03% SDS, 1 mM EDTA and 1% DMSO. The reaction is initiated by the addition of the fluorogenic peptide substrate, Suc-LLVY-AMC (Bachem 1-1395), at a concentration of 40 μM. After 60 minutes of incubation at 37° C., fluorescence intensity is measured at λex=350 nm and λem=450 nm with a fluorescence reader (Perkin Elmer Envision reader or equivalent).
(§2) Unless indicated otherwise the results are obtained after incubation for 20 minutes.

[2] = molecular target: Beta5 (purified human constitutive proteasome) (Homo sapiens, UniProt P20618+P28074); assay: Determination of Beta5 activity (fluorescence intensity assay, Suc-LLVY-AMC); format: biochemical; settings: purified human constitutive proteasome 1.25 nM, incubation for 20 minutes at 25° C., Suc-LLVY-AMC 40 μM
Method: Determination of Beta5 Activity:
Measurement of Beta5 inhibition is performed in 384 well format based on fluorescence intensity assay.
as §1, with “constitutive” for “immuno”, “(1.25” for “(0.25”
as §2

[3] = molecular target: LMP7 subunit of the immunoproteasome (Homo sapiens, UniProt P20618+P28062); settings: Singh et al, Br. J. Hematology 152(2): 155-163; cited from earlier work

Compound | Selectivity LMP7 vs Beta5 [1] | IC50 [1] [µM] | IC50 [2] [µM] | selective inhibitor of the LMP7 subunit of the immunoproteasome [3] [fold]
Cc1cccc2c(C[C@H](NC(=O)[C@H]3CCCO3)B(O)O)coc12 [Compound 29, [(1R)-2-(7-methylbenzo-furan-3-yl)-1-[[(2R)-tetrahydrofuran-2-carbonyl]amino]ethyl]-boronic acid] | ++ (100 ≤ Selectivity < 300) | ≤ 0.05 | 0.5 to 5 | –
Cc1cccc2c(C[C@@H](NC(=O)[C@H]3CCCO3)B(O)O)coc12 [Compound 30] | ++ (100 ≤ Selectivity < 300) | 0.05 to 0.5 | 5 to 30 | –
COCCC(=O)N[C@@H](Cc1coc2ccccc12)B(O)O [Compound 31, [(1R)-2-(benzofuran-3-yl)-1-(3-methoxy-propanoylamino)ethyl]-boronic acid] | ++ (100 ≤ Selectivity < 300) | ≤ 0.05 | 0.05 to 0.5 | –
O=C(N[C@@H](Cc1coc2ccccc12)B(O)O)[C@H]1CCOC1 [Compound 32, [(1R)-2-(benzofuran-3-yl)-1-[[(3S)-tetrahydro-furan-3-carbonyl]-amino]ethyl]boronic acid] | ++ (100 ≤ Selectivity < 300) | ≤ 0.05 | 5 to 30 | –
CC1=C(C(=O)N[C@H](C)C(=O)N[C@@H](Cc2c[nH]c3ccccc23)C(=O)N[C@@H](Cc2ccccc2)C(=O)[C@@]2(C)CO2)Cc2ccccc21 [PR-924] | – | – | – | 100

Further lines, with some results ahead:

Selectivity LMP7 vs Beta5 [1] | IC50 [1] [µM] | IC50 [2] [µM] | Compound | selective inhibitor of the LMP7 subunit of the immunoproteasome [3] [fold]
++++ (Selectivity ≥ 500) | ≤ 0.05 | 0.5 to 5 | O=C(N[C@@H](Cc1coc2ccccc12)B(O)O)[C@@H]1CCOC1 [Compound 33, [(1R)-2-(benzofuran-3-yl)-1-[[(3R)-tetrahydro-furan-3-carbonyl]-amino]ethyl]boronic acid] | –
++++ (Selectivity ≥ 500) | ≤ 0.05 | 0.5 to 5 | O=C(N[C@@H](Cc1coc2ccccc12)B(O)O)C1COc2ccccc21 (stereo partly drawn) [Compound 35, [(1R)-2-(benzofuran-3-yl)-1-(2,3-dihydrobenzo-furan-3-carbonylamino)-ethyl]boronic acid] | –
+++ (300 ≤ Selectivity < 500) | ≤ 0.05 | 0.5 to 5 | O=C(N[C@@H](Cc1coc2ccccc12)B(O)O)C1OCCc2ccccc21 (stereo partly drawn) [Compound 38, [(1R)-2-(benzofuran-3-yl)-1-(isochromane-1-carbonylamino)ethyl]-boronic acid] | –
++ (100 ≤ Selectivity < 300) | ≤ 0.05 | 0.5 to 5 | O=C(N[C@@H](Cc1coc2ccccc12)B(O)O)[C@@H]1COCCO1 [Compound 39, [(1R)-2-(benzofuran-3-yl)-1-[[(2S)-1,4-dioxane-2-carbonyl]-amino]ethyl]boronic acid] | –
+ (Selectivity <100) | ≤ 0.05 | 0.5 to 5 | O=C(N[C@@H](Cc1coc2ccccc12)B(O)O)[C@H]1COCCO1 [Compound 40, [(1R)-2-(benzofuran-3-yl)-1-[[(2R)-1,4-dioxane-2-carbonyl]-amino]ethyl]boronic acid] | –
++++ (Selectivity ≥ 500) | 0.05 to 0.5 | 5 to 30 | O=C(N[C@@H](C[C@@H]1COc2ccccc21)B(O)O)[C@@H]1CCOC1 [Compound 41, [(1R)-2-[(3S)-2,3-dihydrobenzofuran-3-yl]-1-[[(3R)-tetra-hydrofuran-3-carbonyl]-amino]ethyl]boronic acid] | –
+++ (300 ≤ Selectivity < 500) | 0.05 to 0.5 | 5 to 30 | Cc1cccc2c1OC[C@H]2C[C@H](NC(=O)[C@@H]1CCOC1)B(O)O [Compound 42, [(1R)-2-[(3S)-7-methyl-2,3-dihydrobenzofuran-3-yl]-1-[[(3R)-tetra-hydrofuran-3-carbonyl]-amino]ethyl]boronic acid] | –
